Test results taken from PubChem BioAssay (NCI).
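In this assay, cells in 96-well plates receive the compound at five concentrations for 48 hours. Endpoints are linearly interpolated between the surrounding concentrations. GI50: concentration for 50% inhibition of growth. TGI is the concentration that stops growth completely.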

Columns and labels:
Assay in all cases: growth of human tumour cells (NCI), 48 h
A498 renal = system: A498 renal
SNB-19 CNS = system: SNB-19 CNS
MDA-MB-435 = system: MDA-MB-435
SN12C renal = system: SN12C renal
TK-10 renal = system: TK-10 renal
HOP-62 NSCLC = system: HOP-62 NSCLC
ACHN renal = system: ACHN renal
OVCAR-8 ovarian = system: OVCAR-8 ovarian
NCI/ADR-RES ovarian = system: NCI/ADR-RES ovarian
EKVX NSCLC = system: EKVX NSCLC
786-0 renal = system: 786-0 renal
NCI-H23 lung = system: NCI-H23 lung
NCI-H226 lung = system: NCI-H226 lung
HCT-116 colon = system: HCT-116 colon
HCT-15 colon = system: HCT-15 colon
MCF7 breast = system: MCF7 breast
HS 578T breast = system: HS 578T breast
KM12 colon = system: KM12 colon
RPMI-8226 leukemia = system: RPMI-8226 leukemia
M14 melanoma = system: M14 melanoma
SR leukemia = system: SR leukemia
PC-3 prostate = system: PC-3 prostate
SK-MEL-2 melanoma = system: SK-MEL-2 melanoma
SK-MEL-28 melanoma = system: SK-MEL-28 melanoma
NCI-H460 lung = system: NCI-H460 lung
OVCAR-5 ovarian = system: OVCAR-5 ovarian
UACC-62 melanoma = system: UACC-62 melanoma
LOX IMVI melanoma = system: LOX IMVI melanoma
HT29 colon = system: HT29 colon
OVCAR-3 ovarian = system: OVCAR-3 ovarian
CAKI-1 renal = system: CAKI-1 renal
CCRF-CEM leukemia = system: CCRF-CEM leukemia
MDA-MB-231 breast = system: MDA-MB-231 breast
HOP-92 NSCLC = system: HOP-92 NSCLC
SK-OV-3 ovarian = system: SK-OV-3 ovarian
NCI-H522 lung = system: NCI-H522 lung
U251 CNS = system: U251 CNS
MOLT-4 leukemia = system: MOLT-4 leukemia
BT-549 breast = system: BT-549 breast
RXF 393 renal = system: RXF 393 renal
T-47D breast = system: T-47D breast
IGROV1 ovarian = system: IGROV1 ovarian
K-562 leukemia = system: K-562 leukemia
COLO 205 colon = system: COLO 205 colon
UACC-257 melanoma = system: UACC-257 melanoma
UO-31 renal = system: UO-31 renal
SW-620 colon = system: SW-620 colon
SK-MEL-5 melanoma = system: SK-MEL-5 melanoma
SF-268 CNS = system: SF-268 CNS
HL-60(TB) leukemia = system: HL-60(TB) leukemia
HCC-2998 colon = system: HCC-2998 colon
SNB-75 CNS = system: SNB-75 CNS
A549 NSCLC = system: A549 NSCLC
SF-539 CNS = system: SF-539 CNS
MALME-3M melanoma = system: MALME-3M melanoma
OVCAR-4 ovarian = system: OVCAR-4 ovarian
DU-145 prostate = system: DU-145 prostate
SF-295 CNS = system: SF-295 CNS

Work on `Clc1ccc(C2c3ccccc3-c3nccn32)c(Cl)c1` (stereo unspecified) yielded a GI50 (A498 renal) of 12.2 µM, a TGI (A498 renal) of 24.6 µM and a GI50 (SNB-19 CNS) of 13.2 µM. It also gave a TGI (SNB-19 CNS) of 27.4 µM, a GI50 (MDA-MB-435) of 10.6 µM and a TGI (MDA-MB-435) of 22.5 µM. It also gave a GI50 (SN12C renal) of 13.8 µM, a TGI (SN12C renal) of 30.6 µM and a GI50 (TK-10 renal) of 13.7 µM. For the same compound, the TGI (TK-10 renal) was 28.6 µM, the GI50 (HOP-62 NSCLC) was 16.9 µM and the TGI (HOP-62 NSCLC) was 44.2 µM. It also gave a GI50 (ACHN renal) of 12.3 µM, a TGI (ACHN renal) of 26.9 µM and a GI50 (OVCAR-8 ovarian) of 12.6 µM. The TGI (OVCAR-8 ovarian) was 32.5 µM, the GI50 (NCI/ADR-RES ovarian) was 6.57 µM and the TGI (NCI/ADR-RES ovarian) was 24 µM. For the same compound, the GI50 (EKVX NSCLC) was 5.28 µM, the TGI (EKVX NSCLC) was 19.3 µM and the GI50 (786-0 renal) was 19.5 µM. The TGI (786-0 renal) was greater than 55.2 µM, the GI50 (NCI-H23 lung) was 6.56 µM and the TGI (NCI-H23 lung) was 35.5 µM. It also gave a GI50 (NCI-H226 lung) of 6.92 µM, a TGI (NCI-H226 lung) of 26 µM and a GI50 (HCT-116 colon) of 9.7 µM. For the same compound, the TGI (HCT-116 colon) was 39.2 µM, the GI50 (HCT-15 colon) was 11.5 µM and the TGI (HCT-15 colon) was 24.4 µM. It also gave a GI50 (MCF7 breast) of 12.5 µM, a TGI (MCF7 breast) of 25.7 µM and a GI50 (HS 578T breast) of 13.6 µM. The TGI (HS 578T breast) was 35.5 µM, the GI50 (KM12 colon) was 13.2 µM and the TGI (KM12 colon) was 26.6 µM. For the same compound, the GI50 (RPMI-8226 leukemia) was 0.941 µM, the TGI (RPMI-8226 leukemia) was 8.48 µM and the GI50 (M14 melanoma) was 21.2 µM. It also gave a TGI (M14 melanoma) of 62.4 µM, a GI50 (SR leukemia) of 2.34 µM and a TGI (SR leukemia) of 30 µM. The GI50 (PC-3 prostate) was 11.6 µM, the TGI (PC-3 prostate) was 31.3 µM and the GI50 (SK-MEL-2 melanoma) was 11.3 µM. For the same compound, the TGI (SK-MEL-2 melanoma) was 26 µM, the GI50 (SK-MEL-28 melanoma) was 13.6 µM and the TGI (SK-MEL-28 melanoma) was 26.5 µM. It also gave a GI50 (NCI-H460 lung) of 12.2 µM, a TGI (NCI-H460 lung) of 24.6 µM and a GI50 (OVCAR-5 ovarian) of 14.8 µM. The TGI (OVCAR-5 ovarian) was 30.1 µM, the GI50 (UACC-62 melanoma) was 9.66 µM and the TGI (UACC-62 melanoma) was 23 µM. The GI50 (LOX IMVI melanoma) was 11.2 µM, the TGI (LOX IMVI melanoma) was 23.9 µM and the GI50 (HT29 colon) was 9.87 µM. For the same compound, the TGI (HT29 colon) was 24.6 µM, the GI50 (OVCAR-3 ovarian) was 11 µM and the TGI (OVCAR-3 ovarian) was 22.9 µM. For the same compound, the GI50 (CAKI-1 renal) was 1.98 µM, the TGI (CAKI-1 renal) was 19 µM and the GI50 (CCRF-CEM leukemia) was 2.77 µM. For the same compound, the TGI (CCRF-CEM leukemia) was greater than 44.1 µM, the GI50 (MDA-MB-231 breast) was 11.5 µM and the TGI (MDA-MB-231 breast) was 26 µM. The GI50 (HOP-92 NSCLC) was 9.94 µM, the TGI (HOP-92 NSCLC) was 25.7 µM and the GI50 (SK-OV-3 ovarian) was 14.7 µM. The TGI (SK-OV-3 ovarian) was 33.2 µM, the GI50 (NCI-H522 lung) was 11.4 µM and the TGI (NCI-H522 lung) was 31.7 µM. It also gave a GI50 (U251 CNS) of 13.4 µM, a TGI (U251 CNS) of 26.2 µM and a GI50 (MOLT-4 leukemia) of 2.8 µM. For the same compound, the TGI (MOLT-4 leukemia) was 20.5 µM, the GI50 (BT-549 breast) was 9.01 µM and the TGI (BT-549 breast) was 21.7 µM. The GI50 (RXF 393 renal) was 14.6 µM, the TGI (RXF 393 renal) was 30.6 µM and the GI50 (T-47D breast) was 5.13 µM. The TGI (T-47D breast) was 32.8 µM, the GI50 (IGROV1 ovarian) was 11.7 µM and the TGI (IGROV1 ovarian) was greater than 47.9 µM. For the same compound, the GI50 (K-562 leukemia) was 1.37 µM, the TGI (K-562 leukemia) was greater than 40.5 µM and the GI50 (COLO 205 colon) was 13.5 µM. The TGI (COLO 205 colon) was 28 µM, the GI50 (UACC-257 melanoma) was 12.5 µM and the TGI (UACC-257 melanoma) was 28.9 µM. For the same compound, the GI50 (UO-31 renal) was 7.37 µM, the TGI (UO-31 renal) was 23.3 µM and the GI50 (SW-620 colon) was 13.6 µM. For the same compound, the TGI (SW-620 colon) was 26.5 µM, the GI50 (SK-MEL-5 melanoma) was 6.3 µM and the TGI (SK-MEL-5 melanoma) was 18.8 µM. The GI50 (SF-268 CNS) was 14 µM, the TGI (SF-268 CNS) was 27.4 µM and the GI50 (HL-60(TB) leukemia) was 2.25 µM. It also gave a TGI (HL-60(TB) leukemia) of 18.4 µM, a GI50 (HCC-2998 colon) of 13.9 µM and a TGI (HCC-2998 colon) of 28.1 µM. It also gave a GI50 (SNB-75 CNS) of 11.2 µM, a TGI (SNB-75 CNS) of 23.7 µM and a GI50 (A549 NSCLC) of 13.4 µM. It also gave a TGI (A549 NSCLC) of 36.7 µM, a GI50 (SF-539 CNS) of 15 µM and a TGI (SF-539 CNS) of 28.5 µM. For the same compound, the GI50 (MALME-3M melanoma) was 10.6 µM, the TGI (MALME-3M melanoma) was 23.1 µM and the GI50 (OVCAR-4 ovarian) was 3.6 µM. For the same compound, the TGI (OVCAR-4 ovarian) was 17.4 µM, the GI50 (DU-145 prostate) was 13.6 µM and the TGI (DU-145 prostate) was 26.4 µM. It also gave a GI50 (SF-295 CNS) of 4.52 µM and a TGI (SF-295 CNS) of 18.3 µM.
